SMILES strings stand for the structures. Structures can show the parent of a compound that is named as a salt.

The test system of assay [1] is mice. The assay is described as follows: Anti-Marble Burying Behavior Test in Mice. It counts as in vivo. The following applies: Mus musculus, reduction in number of marbles buried, ip. The text has this:
Marble burying was developed and validated as a pre-clinical assay of potential anxiolytic activity (Andrews and Broekkamp (1993). Procedures to Identify Anxiolytic or Anxiogenic agents. In Behavioural Neuroscience, ed. A Sahgal, pp. 37-54. IRL Press, Oxford). The marble burying test places a naive mouse into a novel environment containing 25 marbles (arranged on top of a sawdust surface). A reduction in the number of marbles buried by the mouse was hypothesized to be an anxiolytic-like effect.

Assay [2] concerns mice. The assay is described as follows: Tail Suspension Test in Mice (TST). The assay is classed as in vivo. The following applies: Mus musculus, reduction in immobility vs control group, 1 mg/kg, po. The text has this:
Tail Suspension Test in mice is the well-known animal model to determine antidepressant efficacy of compounds by checking escaping behavior and immobility time of mice. Mice treated with antidepressant drug show escaping behavior continuously comparing with control group.
The mice were mainly treated orally with the test compound dissolved in 30% PEG400 or with only 30% PEG400 as control. Tail of mouse is suspended to the rod of TST equipment and end of tail is fixed with sticky tape. Suspended mouse is incubated during 2 min for training and adaptation and after following 2 min, observe escaping behavior and check immobility time for 4 min. The potent ability of the compounds was determined as percent value of reduction in immobility comparing to control group as 100% baseline.

In assay [3] the target is T1, Serotonin 1A (5-HT1A) receptor (Rattus norvegicus, UniProt P19327).
T1 construct: The cortex tissue were homogenized in 30 volumes of ice-cold 50 mM Tris-HCl buffer; from tissue; host or cells: Sprague-Dawley rat brain cortex membranes
T1 sequence (P19327 1-422): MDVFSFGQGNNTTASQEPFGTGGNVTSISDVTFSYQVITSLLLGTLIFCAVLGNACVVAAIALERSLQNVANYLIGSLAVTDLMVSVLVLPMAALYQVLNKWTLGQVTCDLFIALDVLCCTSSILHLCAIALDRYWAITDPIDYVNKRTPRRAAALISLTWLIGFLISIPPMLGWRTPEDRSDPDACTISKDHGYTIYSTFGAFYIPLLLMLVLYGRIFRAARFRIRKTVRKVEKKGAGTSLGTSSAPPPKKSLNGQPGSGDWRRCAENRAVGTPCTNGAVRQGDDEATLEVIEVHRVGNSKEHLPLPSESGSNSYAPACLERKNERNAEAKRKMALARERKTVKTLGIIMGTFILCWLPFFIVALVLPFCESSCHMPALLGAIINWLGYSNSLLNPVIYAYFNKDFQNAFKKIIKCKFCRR
Description: Serotonin 1A (5-HT1A) receptor inhibition assay, [3H]8-OH-DPAT binding to rat cortex membranes. Set-up: species or system Sprague-Dawley (SD) rats. The following applies: 10 nM test compound; 0.92 nM [3H]8-OH-DPAT; rat cortex homogenate; 60 min at 25° C. The protocol:
The method to test the ability of compounds to inhibit serotonin 1A(5-HT1A) receptors was using Hall. et al., J Neuro Chem., 1985, 44, p 1685-1696 with modification.
The Sprague-Dawley (SD) rats were killed by decapitation and their brains rapidly removed at 4° C. The cortex tissue were homogenized in 30 volumes of ice-cold 50 mM Tris-HCl buffer (pH7.4) using an ultra-turrax T8 and centrifuged at 48,000 g for 20 min. The supernatant was discarded and the pellet washed twice by resuspension in 20 volumes Tris-HCl and centrifugation, homogenized in 20 volumes Tris-HCl, and incubated at 37° C. for 10 min. Membranes were than collected by centrifugation and washed twice before final resuspension in 10 volumes of 50 mM Tris-HCl, pH7.4.
For binding assays, the incubation medium consisted of 162.5 ug of tissue homogenate, 0.92 nM of [3H]8-OH-DPAT and vehicle or 10 uM of 5-HT or 10 nM of test compounds per well. 5-HT and test compounds were dissolved in distilled water and incubation medium was 50 mM Tris(pH7.4 at room temperature). The assay plates (96 well) were incubated for 60 min at 25° C. The reaction was terminated by rapid filtration using a Tomtec harvester, through GF/C glassfibre filter with 5 times washes of Tris buffer. The radioactivity retained on the filters was counted by scintillation spectroscopy (MicroBeta TriLux, Wallac). The tests were triplicates. Percent inhibition was calculated as below equation.
Total binding is the value of vehicle treated group and specific binding is the values that deduct non-specific binding (i.e. the value of non-specific ligand, 5-HT).

In the case of `COc1ccccc1N1CCN(CCCCOc2cccc(Cn3cnnn3)c2)CC1` [Example 7, 1-(2-methoxy-phenyl)-4-[4-(3-tetrazol-1-ylmethyl-phenoxy)-butyl]-piperazine hydrochloride], the inhibition in vivo at 7.5 mg/kg in assay [1] came out at 61.1%. This compound displayed an inhibition in vivo at 1 mg/kg in assay [2] of 21.1%. The compound further displayed an inhibition at 0.01 µM in assay [3] of 78.4%.

Turning to `COc1ccccc1N1CCN(CCCCOc2ccc(CCn3cncn3)cc2)CC1` [Example 48, 1-(2-methoxy-phenyl)-4-{4-[4-(2-[1,2,4]triazol-1-yl-ethyl)-phenoxy]-butyl}-piperazine], the inhibition in vivo at 3 mg/kg in assay [1] (3 mg/kg) came to 31.3%. The compound further returned an inhibition in vivo at 1 mg/kg in assay [2] of 26.2%. For the same compound, at 0.01 µM the inhibition in assay [3] was 48%.

In assay [1], `COc1ccccc1N1CCN(CCCCOc2ccc(Cn3nccn3)cc2)CC1` [Example 11, 1-(2-methoxy-phenyl)-4-[4-(4-[1,2,3]triazol-2-ylmethyl-phenoxy)-butyl]-piperazine] gave an inhibition in vivo at 7.5 mg/kg of 69%. This compound registered an inhibition in vivo at 1 mg/kg in assay [2] of 25%. The compound further came in with an inhibition at 0.01 µM in assay [3] of 61.8%.
